# How the values were obtained:
# Assay type in all cases: cell-based
# LnCaP and MCF-7 cells = experiment: Trypan blue exclusion viability assay, Tables 2-4; settings: 5.0 μM compound, 48 hours, read-out: % viable LnCaP and MCF-7 cells
# Description: (§1) The effect of the styryl sulfones on the growth of normal and tumor cells of breast and prostate was examine utilizing four cell lines, NIH3T3, MCF-7, BT-20 and LnCap. NIH/3T3 cells represent normal fibroblasts while LnCap is an androgen-dependent prostate tumor cell line. MCF-7 is an estrogen-responsive breast tumor cell line, while BT-20 is an estrogen-unresponsive breast tumor cell line. MCF-7 and BT-20 were grown in Dulbecco's modified Eagle's medium (DMEM) containing 10% fetal bovine serum supplemented with penicillin and streptomycin. LnCaP were cultured in RPMI with 10% fetal bovine serum containing penicillin and streptomycin. NIH3T3 cells were grown in DMEM containing 10% calf serum supplemented with penicillin and streptomycin. All cell cultures were maintained at 37° C. in a humidified atmosphere of 5% CO2.
# Cells were treated with test compound at 2.5 μM or 5.0 μM concentration and cell viability was determined after 48 hours by the Trypan blue exclusion method. The compounds identified in Tables 2, 3 and 4 inhibited cell growth and induced cell death, to varying degrees. The tables list the percent viable LnCap and MCF-7 cells treated with 5.0 μM compound.
# [1] = tested on: LnCaP, BT-20 and MCF-7 cells; experiment: Trypan blue exclusion viability/proliferation assay (dose and time course)
# Description: as §1
# (§2) The compounds identified in Tables 2, 3 and 4 inhibited cell growth and induced cell death, to varying degrees. The tables list the percent viable LnCap and MCF-7 cells treated with 5.0 μM compound.
# (§3) NIH3T3, MCF-7, BT-20 and LnCaP cells were treated with FRI-20 dissolved in DMSO to concentrations of 250 nM, 500 nM, 1 μM, 2.5 μM and 5 μM and examined for their proliferation and viability after 48 hours (FIG. 2A). The percentage of living cells was determined by Trypan blue exclusion. The control cells were treated with DMSO to determine the effect of solvent on cells. […] Under these conditions, only 2-3% of NIH3T3 cells were non-viable at both the concentrations. […] After 48 hours incubation, 60-75% of the LnCaP, BT-20 and MCF-7 cells were dead at […] FRI-20 concentration, whereas more than 90% of NIH3T3 cells were viable (FIG. 2A).
# NIH/3T3, MCF-7, BT-20 and LnCap were treated with FRI-20 at 2.5 μM and the number of viable cells was determined at 12, 24, 48 and 72 hours by Trypan blue exclusion.
# [2] = Trypan blue exclusion viability assay, normal fibroblasts; parameters: viability at 48 h: dose or concentration left out as unconfirmed; settings: mouse, NIH3T3 cells (normal fibroblasts)
# Description: as §1, §2
# as §3, with “The” for “NIH3T3, MCF-7, BT-20 and LnCaP cells were treated with FRI-20 dissolved in DMSO to concentrations of 250 nM, 500 nM, 1 μM, 2.5 μM and 5 μM and examined for their proliferation and viability after 48 hours (FIG. 2A). The”
# DU-145 cells = experiment: Trypan blue exclusion viability assay, prostate tumor cell line; parameters: unit of the concentration uncertain; settings: 48 hours
# Description: (§4) The effect of FR-20 on the growth of normal and tumor cells of breast and prostate was examine utilizing nine cell lines: NIH/3T3 and HFL (normal fibroblast cell lines); MCF-7 and 361 ([…] breast tumor cell lines); BT-20, 435 and SKBR-3 ([…] breast tumor cell lines); LnCaP (androgen sensitive prostate tumor cell line); PC-3 and DU-145 (androgen insensitive prostate tumor cell line).
# (§5) The cells were grown as in Example 22, A. FR-20 was dissolved in DMSO and added to the cells at 2.5 μM and 5.0 μM concentration. To control cells, DMSO was added equivalent to the volume of solvent (DMSO) present at the highest concentration of the compound. The activity of the compound was evaluated after 48 hours by Trypan blue exclusion. […] Nearly 50% of SKBR-3 and BT-20 cells were dead at 2.5 μM and 75% at 5.0 μM concentration of the compound. […] FRI-20 had profound effect on the viability of androgen-dependent LnCaP prostate tumor cell line when compared to androgen-independent DU-145 and PC-3 prostate cell lines. At […] FRI-20, 80% of LnCaP, 40% of PC-3 and 20% of DU-145 cells were killed. At […] FRI-20, 72% of LnCaP, 47% of PC-3 and 40% of DU-145 were killed (FIG. 3B).
# [3] = tested on: LnCaP prostate tumor cell line; experiment: as above; parameters: unit of the concentration uncertain; settings: 48 hours
# Description: as §4, §5
# PC-3 cells = experiment: as above; parameters: unit of the concentration uncertain; settings: 48 hours
# Description: as §4, §5
# LnCaP cells = experiment: Cell cycle analysis by propidium iodide flow cytometry (FACS); settings: 2.0 μM; harvested 6, 12, 24 and 48 hours
# Description: The androgen-dependent prostate tumor cell line LnCaP was grown as in Ex. 22, A, and treated with 2.0 μM FRI-20 dissolved in DMSO or with equivalent amounts ([…]) of DMSO alone. Cells were harvested 6, 12, 24, and 48 hours following treatment and stained with propidium iodide and subjected to flow cytometry (FACS) for analysis of DNA content.
# SK-MEL-28 = experiment: GI50 growth inhibition, trypan blue cell count; settings: Homo sapiens, melanoma, 96 hours after addition
# Description: The human carcinoma cell lines listed in Table 5 below were purchased from ATCC and grown in an appropriate growth medium containing 10% fetal bovine serum (FBS) and antibiotics. The cells were plated at a cell density of 1.0×10^5 cells per […] in 6-well dishes. The cells were treated with various concentrations of (E)-fluorostyryl-4-bromobenzylsulfone 24 hours after plating in a total volume of 1 ml of medium using dimethylsulfoxide (DMSO) as a solvent for the compound. Control cells were treated with DMSO alone. The total number of viable cells was determined 96 hours after the addition of the compound by counting the cells in each well using a hemacytometer after trypan blue staining (viable cells exclude the stain). The counts were done in duplicate and the average was graphed in FIG. 8 as a percentage of the non-treated control group.
smiles,measurement,setting,value
"O=S(=O)(/C=C/c1ccc(F)cc1)Cc1ccc(Cl)cc1 [Example 11, E-4-fluorostyryl 4-chlorobenzyl Sulfone]",viability at 5 µM,LnCaP and MCF-7 cells,6%
same,cell death,"[1]; 250 nM, 48 hours",about 10%
same,inhibition at 0.25 µM,"[1]; 250 nM, 48 hours, read-out: inhibition in cell division compared to untreated cells",15 to 20%
same,cell death,"[1]; 500 nM, 48 hours",25-30%
same,inhibition at 0.5 µM,"[1]; 500 nM, 48 hours, read-out: inhibition in cell proliferation",30 to 50%
same,cell growth inhibition with loss of cell viability,"[1]; 1 μM, 48 hours",greatly inhibited
same,dead cells,"[1]; 2.5 µM, 48 hours incubation",60-75%
same,dead cells,"[1]; 2.5 μM, 72 hours of treatment",more than 95%
same,cell death,"[1]; 5 μM, 48 hours",~90%
same,cytotoxicity at 48 h,"[2]; 250 nM and 500 nM, 48 hours, read-out: non-viable NIH3T3 cells",2 to 3%
same,"viability at 48 h, 5 µM",[2]; 5 μM,> 80%
same,viability at 48 h,"[2]; 48 hours incubation, read-out: viable NIH3T3 cells",> 80%
same,cells killed,DU-145 cells; 2.5 µM,20%
same,cells killed,DU-145 cells; 5.0 µM,40%
same,cells killed,[3]; 2.5 µM,80%
same,cells killed,[3]; 5.0 µM,72%
same,cells killed,PC-3 cells; 2.5 µM,40%
same,cells killed,PC-3 cells; 5.0 µM,47%
same,effect on cell cycle (DNA content),LnCaP cells,accumulation of cells in the G2/M phase of the cell cycle
same,GI50,SK-MEL-28,2000 nM
